Laboratory results from ChEMBL document CHEMBL2010712, “Design and synthesis of orally available MEK inhibitors with potent in vivo antitumor efficacy” (Bioorg Med Chem Lett, 2012).

test system: Rattus norvegicus; experiment: Dose normalized AUC in rat at 1 mg/kg, iv and 5 mg/kg, po; type: ADME, organism-based; conditions: in vivo

Row | AUC/dose | SMILES
1 | 144 ng·h/mL/mg/kg | CC(=O)c1cc(C(=O)NOCCO)c(Nc2ccc(I)cc2F)n1C

test system: not listed separately; experiment: Half life in rat liver microsomes; type: ADME, Microsome; conditions: not given

Row | half-life | SMILES
2 | 54 min | Cn1c(Nc2ccc(I)cc2F)c(C(=O)NOC[C@@H](O)CO)c2c1C(=O)CC2

test system: COLO 205; experiment: Cytotoxicity against human COLO205 cells after 72 hrs by MTS assay; conditions: COLO 205, 72 h

Row | SMILES | EC50
3 | Cn1c(Nc2ccc(I)cc2F)c(C(=O)NOC[C@@H](O)CO)c2c1C(=O)CC2 | 5 nM
4 | CC(=O)c1cc(C(=O)NOCCO)c(Nc2ccc(I)cc2F)n1C | 12 nM

test system: A-375; experiment: Cytotoxicity against human A375 cells after 72 hrs by MTS assay; conditions: A-375, 72 h

Row | SMILES | EC50
5 | Cn1c(Nc2ccc(I)cc2F)c(C(=O)NOC[C@@H](O)CO)c2c1C(=O)CC2 | 7 nM
6 | CC(=O)c1cc(C(=O)NOCCO)c(Nc2ccc(I)cc2F)n1C | 14 nM

target: Dual specificity mitogen-activated protein kinase kinase 1 (Homo sapiens, UniProt Q02750); experiment: Inhibition of MEK1-mediated ERK1 phosphorylation using IPTTPITTYFFFK-5FAM-COOH as substrate by fluorescent polarization assay; conditions: not given
Sequence (Q02750 whole entry): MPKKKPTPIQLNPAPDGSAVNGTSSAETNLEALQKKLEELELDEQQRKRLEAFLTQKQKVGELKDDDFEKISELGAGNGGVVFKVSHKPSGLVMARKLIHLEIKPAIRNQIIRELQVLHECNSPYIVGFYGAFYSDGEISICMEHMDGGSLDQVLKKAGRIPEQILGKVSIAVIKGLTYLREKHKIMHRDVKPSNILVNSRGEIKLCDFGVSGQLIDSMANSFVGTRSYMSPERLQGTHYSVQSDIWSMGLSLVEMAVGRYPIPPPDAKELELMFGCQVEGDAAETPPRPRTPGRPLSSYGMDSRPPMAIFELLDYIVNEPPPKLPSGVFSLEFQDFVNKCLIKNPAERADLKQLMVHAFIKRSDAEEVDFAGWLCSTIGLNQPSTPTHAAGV

Row | IC50 | SMILES
7 | 11 nM | Cn1c(Nc2ccc(I)cc2F)c(C(=O)NOC[C@@H](O)CO)c2c1C(=O)CC2

test system: not listed separately; experiment: Half life in human liver microsomes; type: ADME, Microsome; conditions: not given

Row | half-life | SMILES
8 | 64 min | Cn1c(Nc2ccc(I)cc2F)c(C(=O)NOC[C@@H](O)CO)c2c1C(=O)CC2
